This is an account of results in patent US9920032B2, “Heterocyclic compounds useful as pim kinase inhibitors” (Incyte Corporation, priority 2015, dated 2018).

Holding throughout (type): biochemical
The target of one test is Pim-1 (Homo sapiens (Human), UniProt P11309). The test can be described thus: Pim-1 kinase assay. Particulars: 1 mM ATP; read-out: PIM1 IC50. The procedure, abridged: (§1)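 Enzyme at 2.5 pM (Pim-1) or 1.25 pM (Pim-3) reacted 1 h at 25° C with 1 mM ATP and 0.05 μM biotinylated BAD peptide, pH 7.5. Phospho-Ser112 BAD detected by antibody/Protein-A acceptor and streptavidin donor bead proximity signal after EDTA quench and 1 h dark incubation.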
Sequence of Pim-1 (P11309 whole entry): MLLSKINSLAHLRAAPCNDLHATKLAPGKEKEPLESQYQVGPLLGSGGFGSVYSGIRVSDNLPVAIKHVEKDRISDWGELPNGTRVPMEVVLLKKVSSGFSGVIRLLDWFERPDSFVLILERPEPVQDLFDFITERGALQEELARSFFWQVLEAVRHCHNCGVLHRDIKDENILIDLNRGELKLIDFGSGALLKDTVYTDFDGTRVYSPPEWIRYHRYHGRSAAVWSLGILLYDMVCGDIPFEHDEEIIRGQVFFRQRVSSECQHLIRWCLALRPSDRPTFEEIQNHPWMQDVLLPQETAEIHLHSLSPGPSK

For another test, the target named is Pim-3 (Homo sapiens (Human), UniProt Q86V86). As to the kind of experiment: Pim-3 kinase assay. Conditions: 1 mM ATP; read-out: PIM3 IC50. The procedure, abridged: as §1
For a further test, the target named is Pim-2 (Homo sapiens (Human), UniProt Q9P1W9). The test can be described thus: Pim-2 kinase assay. Conditions: 1 mM ATP; read-out: PIM2 IC50. Summed up:
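TR-FRET assay with 1 nM enzyme, 0.05 μM fluorescein-CREBtide and 1 mM ATP in Tris pH 7.5 buffer with MgCl2, DTT, BSA and Tween-20, run 2 h at 25° C. Stopped with EDTA and Tb-labelled anti-CREB pSer133 antibody, then read after 30 min at room temperature.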

Sequence of Pim-2 (Q9P1W9 whole entry): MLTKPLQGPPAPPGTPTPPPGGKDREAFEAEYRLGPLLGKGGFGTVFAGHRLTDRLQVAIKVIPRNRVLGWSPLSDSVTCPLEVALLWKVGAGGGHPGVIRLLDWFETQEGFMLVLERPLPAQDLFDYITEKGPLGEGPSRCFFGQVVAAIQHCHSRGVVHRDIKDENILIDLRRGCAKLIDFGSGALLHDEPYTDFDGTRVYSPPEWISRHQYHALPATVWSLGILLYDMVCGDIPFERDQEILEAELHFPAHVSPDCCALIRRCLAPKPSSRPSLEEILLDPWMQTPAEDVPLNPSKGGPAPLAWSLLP

For `C[C@@H]1C[C@H](N)C[C@H](c2ccncc2NC(=O)c2ccc(F)c3cc(N4CCN(C)CC4)cnc23)C1` [Example 30, N-{4-[(1R,3S,5S)-3-Amino-5-methylcyclohexyl]pyridin-3-yl}-5-fluoro-3-(4-methylpiperazin-1-yl)quinoline-8-carboxamide], the values for the IC50 on Pim-1, at Pim-3 and at Pim-2 were no more than 10 nM, no more than 10 nM and 100 to 1000 nM, respectively.
With `C[C@@H]1C[C@H](N)C[C@H](c2ccncc2NC(=O)c2ccc(F)c3cc(N4CCOC[C@H]4C)cnc23)C1` [Example 32, N-(4-((1R,3S,5S)-3-Amino-5-methylcyclohexyl)pyridin-3-yl)-5-fluoro-3-((R)-3-methylmorpholino)quinoline-8-carboxamide], the IC50 on Pim-1 is no more than 10 nM; on Pim-3, no more than 10 nM; at Pim-2 it was no more than 100 nM.
Consider `C[C@@H]1C[C@H](N)C[C@H](c2ccncc2NC(=O)c2ccc(F)c3cc(N4CCOC[C@@H]4C)cnc23)C1` [Example 33, N-(4-((1R,3S,5S)-3-Amino-5-methylcyclohexyl)pyridin-3-yl)-5-fluoro-3-((S)-3-methylmorpholino)quinoline-8-carboxamide], for which the IC50 was no more than 10 nM at Pim-1, no more than 10 nM at Pim-3 and no more than 100 nM on Pim-2.
Take `CCc1cc2c(F)ccc(C(=O)Nc3cnccc3[C@@H]3C[C@H](C)C[C@H](N)C3)c2nn1` [Example 92, N-{4-[(1R,3S,5S)-3-Amino-5-methylcyclohexyl]pyridin-3-yl}-3-ethyl-5-fluorocinnoline-8-carboxamide]: the IC50 on Pim-1 is no more than 10 nM; on Pim-3 it was 10 to 50 nM; on Pim-2 it was 1000 to 10000 nM.
For `C[C@@H]1C[C@H](N)C[C@H](c2ccncc2NC(=O)c2ccc(F)c3cc(N4CCC(O)CC4)cnc23)C1` [Example 44, N-(4-((1R,3S,5S)-3-Amino-5-methylcyclohexyl)pyridin-3-yl)-5-fluoro-3-(4-hydroxypiperidin-1-yl)quinoline-8-carboxamide], the IC50 at Pim-1 is no more than 10 nM; at Pim-3, no more than 10 nM; at Pim-2 it was 100 to 1000 nM.
With `C[C@@H]1C[C@H](N)C[C@H](c2ccncc2NC(=O)c2ccc(F)c3cc(N4CC5(CCC5)C4)cnc23)C1` [Example 107, N-(4-((1R,3S,5S)-3-Amino-5-methylcyclohexyl)pyridin-3-yl)-5-fluoro-3-(2-azaspiro[3.3]heptan-2-yl)quinoline-8-carboxamide], the IC50 on Pim-1 is no more than 10 nM; at Pim-3, no more than 10 nM; on Pim-2 it was no more than 100 nM.
Regarding `C[C@@H]1C[C@H](N)C[C@H](c2ccncc2NC(=O)c2ccc(F)c3cc(N[C@@H](C)C4CC4)cnc23)C1` [Example 52, N-(4-((1R,3S,5S)-3-Amino-5-methylcyclohexyl)pyridin-3-yl)-3-((S)-1-cyclopropylethylamino)-5-fluoroquinoline-8-carboxamide], the values for the IC50 on Pim-1, at Pim-3 and at Pim-2 were no more than 10 nM, 10 to 50 nM and 1000 to 10000 nM, respectively.
The like results for `Cc1n[nH]cc1-c1cnc2c(C(=O)Nc3cnccc3[C@@H]3C[C@H](C)C[C@H](N)C3)ccc(F)c2c1` [Example 65, N-(4-((1R,3S,5S)-3-amino-5-methylcyclohexyl)pyridin-3-yl)-5-fluoro-3-(3-methyl-1H-pyrazol-4-yl)quinoline-8-carboxamide] were, in that order, no more than 10 nM, no more than 10 nM and 100 to 1000 nM.
Take `C[C@@H]1C[C@H](N)C[C@H](c2ccncc2NC(=O)c2ccc(F)c3cc(-c4c(F)cccc4C#N)cnc23)C1` [Example 15, N-{4-[(1R,3S,5S)-3-Amino-5-methylcyclohexyl]pyridin-3-yl}-3-(2-cyano-6-fluorophenyl)-5-fluoroquinoline-8-carboxamide]: the IC50 at Pim-1 is no more than 10 nM; at Pim-3, no more than 10 nM; on Pim-2, no more than 100 nM.
As for `C[C@@H]1C[C@H](N)C[C@H](c2ccncc2NC(=O)c2ccc(F)c3cc(N4CC[C@H](C#N)C4)cnc23)C1` [Example 7, N-{4-[(1R,3S,5S)-3-Amino-5-methylcyclohexyl]pyridin-3-yl}-3-[(3S)-3-cyanopyrrolidin-1-yl]-5-fluoroquinoline-8-carboxamide], the IC50 at Pim-1 was no more than 10 nM; on Pim-3, no more than 10 nM; on Pim-2, no more than 100 nM.
For `C[C@@H]1C[C@H](N)C[C@H](c2ccncc2NC(=O)c2cccc3cc(N4CCOC[C@H]4C)cnc23)C1` [Example 67, N-(4-((1R,3S,5S)-3-Amino-5-methylcyclohexyl)pyridin-3-yl)-3-((R)-3-methylmorpholino)quinoline-8-carboxamide], the values for the half-inhibitory concentration (IC50) on Pim-1, on Pim-3 and at Pim-2 were no more than 10 nM, no more than 10 nM and no more than 100 nM, respectively.
`C[C@@H]1C[C@H](N)C[C@H](c2ccncc2NC(=O)c2ccc(F)c3cc(N4C[C@@H](O)C[C@H]4C)cnc23)C1` [Example 164, N-(4-((1R,3S,5S)-3-Amino-5-methylcyclohexyl]pyridin-3-yl}-5-fluoro-3-[(2R,4S)-4-hydroxy-2-methylpyrrolidin-1-yl]quinoline-8-carboxamide]: the IC50 at Pim-1 is no more than 10 nM; on Pim-3 it was no more than 10 nM; at Pim-2 it was no more than 100 nM.
Take `C[C@@H]1C[C@H](N)C[C@H](c2ccncc2NC(=O)c2ccc(F)c3cc(N4CC[C@H]4CO)cnc23)C1` [Example 123, N-(4-((1R,3S,5S)-3-Amino-5-methylcyclohexyl)pyridin-3-yl)-5-fluoro-3-((S)-2-(hydroxymethyl)azetidin-1-yl)quinoline-8-carboxamide]: the results for the IC50 at Pim-1, at Pim-3 and on Pim-2 were no more than 10 nM, no more than 10 nM and no more than 100 nM, respectively.
Turning to `C[C@@H]1C[C@H](N)C[C@H](c2ccncc2NC(=O)c2ccc(F)c3cc(N4CCC[C@H]4C)cnc23)C1` [Example 34, N-(4-((1R,3S,5S)-3-Amino-5-methylcyclohexyl)pyridin-3-yl)-5-fluoro-3-((R)-2-methylpyrrolidin-1-yl)quinoline-8-carboxamide], the figures for the IC50 at Pim-1, at Pim-3 and on Pim-2 were no more than 10 nM, no more than 10 nM and no more than 100 nM, respectively.
On to `CO[C@H]1CCCN(c2cnc3c(C(=O)Nc4cnccc4[C@@H]4C[C@H](C)C[C@H](N)C4)ccc(F)c3c2)C1` [Example 11, N-{4-[(1R,3S,5S)-3-Amino-5-methylcyclohexyl]pyridin-3-yl}-5-fluoro-3-[(38)-3-methoxypiperidin-1-yl]quinoline-8-carboxamide], for which the IC50 was no more than 10 nM at Pim-1, no more than 10 nM on Pim-3 and 100 to 1000 nM on Pim-2.
`C[C@@H]1C[C@H](N)C[C@H](c2ccncc2NC(=O)c2ccc(F)c3cc(N4C5CCC4COC5)cnc23)C1` [Example 77, N-(4-((1R,3S,5S)-3-Amino-5-methylcyclohexyl)pyridin-3-yl)-3-(3-oxa-8-azabicyclo[3.2.1]octan-8-yl)-5-fluoroquinoline-8-carboxamide]: the IC50 at Pim-1 was no more than 10 nM; on Pim-3 it was no more than 10 nM; at Pim-2, no more than 100 nM.
Take `C[C@@H]1C[C@H](N)C[C@H](c2ccncc2NC(=O)c2ccc(F)c3cc(C4CCOCC4)cnc23)C1` [Example 31, N-{4-[(1R,3S,5S)-3-Amino-5-methylcyclohexyl]pyridin-3-yl}-5-fluoro-3-(tetrahydro-2H-pyran-4-yl)quinoline-8-carboxamide]: the IC50 on Pim-1 was no more than 10 nM; on Pim-3, no more than 10 nM; at Pim-2, 100 to 1000 nM.
Consider `Cc1nn(C)cc1-c1cnc2c(C(=O)Nc3cnccc3[C@@H]3C[C@H](C)C[C@H](N)C3)ccc(F)c2c1` [Example 63, N-(4-((1R,3S,5S)-3-Amino-5-methylcyclohexyl)pyridin-3-yl)-3-(1,3-dimethyl-1H-pyrazol-4-yl)-5-fluoroquinoline-8-carboxamide], for which the IC50 on Pim-1 is no more than 10 nM; at Pim-3, no more than 10 nM; on Pim-2 it was 100 to 1000 nM.
On to `C[C@@H]1C[C@H](N)C[C@H](c2ccncc2NC(=O)c2ccc(F)c3cc(N4CC[C@@H]4C)cnc23)C1` [Example 166, N-(4-((1R,3S,5S)-3-Amino-5-methylcyclohexyl)pyridin-3-yl)-5-fluoro-3-((S)-2-methylazetidin-1-yl)quinoline-8-carboxamide], for which the IC50 is no more than 10 nM at Pim-1, no more than 10 nM at Pim-3 and no more than 100 nM on Pim-2.
On to `CC1CN(c2cnc3c(C(=O)Nc4cnccc4[C@@H]4C[C@H](C)C[C@H](N)C4)ccc(F)c3c2)CC(C)O1` (stereo partly drawn) [Example 37, N-(4-((1R,3S,5S)-3-Amino-5-methylcyclohexyl)pyridin-3-yl)-3-(2,6-dimethylmorpholino)-5-fluoroquinoline-8-carboxamide], for which the results for the IC50 at Pim-1, at Pim-3 and on Pim-2 were no more than 10 nM, 10 to 50 nM and 1000 to 10000 nM, respectively.
Consider `C[C@@H]1C[C@H](N)C[C@H](c2ccncc2NC(=O)c2ccc(F)c3cc(N4CCCN(C)S4(=O)=O)cnc23)C1` [Example 128, N-(4-((1R,3S,5S)-3-Amino-5-methylcyclohexyl)pyridin-3-yl)-5-fluoro-3-(6-methyl-1,1-dioxido-1,2,6-thiadiazinan-2-yl)quinoline-8-carboxamide], for which the values for the IC50 at Pim-1, at Pim-3 and at Pim-2 were no more than 10 nM, no more than 10 nM and no more than 100 nM, respectively.
With `C[C@@H]1C[C@H](N)C[C@H](c2ccncc2NC(=O)c2cccc3cc(N4CCC[C@@H]4C)cnc23)C1` [Example 69, N-(4-((1R,3S,5S)-3-Amino-5-methylcyclohexyl)pyridin-3-yl)-3-((S)-2-methylpyrrolidin-1-yl)quinoline-8-carboxamide], the IC50 at Pim-1 is no more than 10 nM; at Pim-3, no more than 10 nM; on Pim-2 it was no more than 100 nM.
